Tests used:
[1] = Pharmacovigilance analysis of A.D.R. in EudraVigilance database; parameters: species or system human; details: for rhabdomyolysis, % of A.D.R.: within musculoskeletal and connective tissue disorders
Source text: All coding preferred terms per System Organ Class (S.O.C.) were screened in the EudraVigilance database (http://www.adrreports.eu/ accessed on 1 May 2021), and those potentially associated with KATP channel blocking actions were reported and subject to analysis.
The data were extracted from EudraVigilance, collected, and analyzed on Microsoft 365 Excel software package (Microsoft 10.00). The not specified category was not included in the calculation. The duplication of a specific report per S.O.C. was evaluated manually and excluded from the analysis.
The Proportional Reporting Ratio (P.R.R.) was calculated using the following equation: a/(a+c)/b/(b + d) where a is the reaction of interest to a given drug of interest, b is the reaction of interest for all other drugs in the class, c are all other reactions to a given drug of interest, and d are all other reactions to all other drugs in the class. Signal definition: P.R.R. ≥ 2, a minimum of three ratios/cases for the reaction of interest, X^2 ≥ 4. No signal is identified if P.R.R. is = 1 [47].

[2] = test system: KATP channels of femora primary bone cells; assay: KATP currents in cell-attached patches of femora (long bone) primary bone cells; assay type: cell-based, mice; details: C-A patches, nanomolar concentrations, Figure 1C
Procedure: The culture of primary bone cells from adult mice was obtained from long bones (tibia and femur) and calvaria, as previously described. Bones were collected, cleaned, and flushed for removing the internal bone marrow cells. Small bone pieces of around 1 mm^3 were treated with trypsin-EDTA 0.25% (w/v) for 1 h and with 0.2% collagenase solution for an additional hour in a shaking water bath to remove all remaining soft tissue and adherent cells. Clean bone pieces have been cultured in basal medium enriched with 50 µg/mL of ascorbic acid. Osteoblasts from femora (Figure S1A, Supplementary Material) and calvaria chips (Figure S1B) were positive to Alizarin red staining (Figure S1C). The marker of osteoblasts was positive, as tested by the PCR expression analysis on cell pellets (Figure S1D).
The solutions for whole-cell and cell attached patches were as follows. The pipette solution contained 132 mM KCl, 1 mM ethylene glycol-bis(β-aminoethylether)-N,N,N′,N′-tetraaceticacid (EGTA), 10 mM NaCl, 2 mM MgCl2, 10 mM HEPES, 1 mM Na2ATP, and 0.3 mM Na2GDP (pH = 7.2). The bath solution contained 142 mM NaCl, 2.8 mM KCl, 1 mM CaCl2, 1 mM MgCl2, 11 mM glucose, and 10 mM HEPES (pH = 7.4).
The whole-cell and cell-attached patch-clamp experiments were performed in asymmetrical K^+ ion concentration in physiological conditions using pipettes with the resistance of 3–5 MΩ.
Drug actions on the channel currents recorded during instantaneous I/V relationships were investigated by applying a depolarization protocol, in response to voltage pulses from −180 mV to +100 mV (Vm) in 20 mV steps. Currents were expressed as densities (pA/pF) to control for cell size/capacitance differences. All experiments were performed at room temperature (20–22 °C) and sampled at 2 kHz (filter = 1 kHz) using an Axopatch-1D amplifier equipped with a CV-4 headstage (Axon Instruments; Foster City, CA, USA). Drug solutions were applied using a fast perfusion system during the continuous monitoring of the seal resistance at 18–22 °C room temperature in excised patches. In whole-cell and cell-attached patch-clamp experiments, before recording, the cells were equilibrated for 10 s with the solution. Data acquisition and analysis were performed using pCLAMP 10 software suite (Axon Instruments; Foster City, CA, USA), as previously described. Seal resistance was continuously monitored during the experiment.
The percentage of KATP current inhibition induced by ZOL was calculated as (I CTRL-I drug)/(I CTRL-I BaCl2) × −100. The concentration response data of ZOL against different KATP channel currents were fitted by an algorithm using the non-linear dynamic fitting routine of Sigma Plot, 10.0.

[3] = within the KATP channel blockers

| hypoglycemia, % of the A.D.R. per S.O.C. [1] [%] | rhabdomyolysis, % of A.D.R. [1] [%] | Proportional Reporting Ratio (P.R.R.) hypoglycemia [1, 3] | Proportional Reporting Ratio (P.R.R.) palpitations [1, 3] | Proportional Reporting Ratio (P.R.R.) rhabdomyolysis [1, 3] | Structure (SMILES) | Proportional Reporting Ratio (P.R.R.) arrhythmias [1, 3] | inhibition of KATP currents in C-A patches (in words) [2] |
| --- | --- | --- | --- | --- | --- | --- | --- |
| 75.6 | 17.7 | ≥ 2 |  |  | CCC1=C(C)CN(C(=O)NCCc2ccc(S(=O)(=O)NC(=O)N[C@H]3CC[C@H](C)CC3)cc2)C1=O [glimepiride] |  |  |
| 77.9 | 18.4 | ≥ 2 | ≥ 2 | ≥ 2 | CC(C)[C@H]1CC[C@H](C(=O)N[C@H](Cc2ccccc2)C(=O)O)CC1 [nateglinide] | ≥ 2 |  |
| 84.6 | 17.8 | ≥ 2 |  |  | CCOc1cc(CC(=O)N[C@@H](CC(C)C)c2ccccc2N2CCCCC2)ccc1C(=O)O [repaglinide] |  |  |
|  |  |  |  |  | CCCCNC(=O)NS(=O)(=O)c1ccc(C)cc1 [tolbutamide] |  | less effective inhibitor |

From article PMC8465290, “Zoledronic Acid as a Novel Dual Blocker of KIR6.1/2-SUR2 Subunits of ATP-Sensitive K^+ Channels: Role in the Adverse Drug Reactions” (Pharmaceutics, 2021)
